Measured values from ChEMBL document CHEMBL4390652, “Design, biological evaluation and X-ray crystallography of nanomolar multifunctional ligands targeting simultaneously acetylcholinesterase and glycogen synthase kinase-3” (Eur J Med Chem, 2019).

Legend:
[1] = biological target: Serine/threonine-protein kinase PAK 5 (Homo sapiens) (UniProt Q9P286); assay: Binding affinity to wild-type human partial length PAK7 (Y400 to H719 residues) expressed in bacterial expression system assessed as residual binding level at 10 uM by Kinomescan method relative to control
[2] = biological target: Tyrosine-protein kinase ITK/TSK (Homo sapiens) (UniProt Q08881); assay: Binding affinity to wild-type human partial length ITK (R335 to L620 residues) expressed in bacterial expression system assessed as residual binding level at 10 uM by Kinomescan method relative to control
[3] = biological target: Ribosomal protein S6 kinase alpha-6 (Homo sapiens) (UniProt Q9UK32); assay: Binding affinity to wild-type human partial length N-terminal RSK4 kinase domain 1 (M1 to E397 residues) expressed in mammalian expression system assessed as residual binding level at 10 uM by Kinomescan method relative to control
Ribosomal protein S6 kinase alpha-6 (Homo sapiens), sequence (Q9UK32 whole entry, the tested form may be a part): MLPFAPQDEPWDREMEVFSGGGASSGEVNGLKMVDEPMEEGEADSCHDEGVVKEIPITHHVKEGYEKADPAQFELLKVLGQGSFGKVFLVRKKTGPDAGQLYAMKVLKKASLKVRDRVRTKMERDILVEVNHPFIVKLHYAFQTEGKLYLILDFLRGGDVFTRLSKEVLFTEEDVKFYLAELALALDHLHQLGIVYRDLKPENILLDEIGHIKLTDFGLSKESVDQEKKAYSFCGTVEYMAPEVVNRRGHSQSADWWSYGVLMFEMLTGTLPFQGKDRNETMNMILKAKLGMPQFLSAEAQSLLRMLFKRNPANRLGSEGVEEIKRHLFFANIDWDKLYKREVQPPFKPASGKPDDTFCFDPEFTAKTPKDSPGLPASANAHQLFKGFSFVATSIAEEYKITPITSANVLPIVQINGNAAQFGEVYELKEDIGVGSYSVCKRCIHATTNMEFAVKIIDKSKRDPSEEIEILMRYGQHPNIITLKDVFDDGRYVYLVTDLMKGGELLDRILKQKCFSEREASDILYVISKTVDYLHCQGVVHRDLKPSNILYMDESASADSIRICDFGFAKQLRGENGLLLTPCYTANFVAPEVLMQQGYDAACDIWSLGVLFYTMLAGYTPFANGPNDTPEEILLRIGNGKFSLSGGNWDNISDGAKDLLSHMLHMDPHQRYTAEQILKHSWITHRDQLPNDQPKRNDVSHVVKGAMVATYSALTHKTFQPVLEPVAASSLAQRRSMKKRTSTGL

[4] = biological target: Cyclin-dependent kinase 7 (Homo sapiens) (UniProt P50613); assay: Binding affinity to wild-type human full length CDK7 (M1 to L344 residues) expressed in mammalian expression system assessed as residual binding level at 10 uM by Kinomescan method relative to control
Cyclin-dependent kinase 7 (Homo sapiens), sequence (P50613 whole entry, the tested form may be a part): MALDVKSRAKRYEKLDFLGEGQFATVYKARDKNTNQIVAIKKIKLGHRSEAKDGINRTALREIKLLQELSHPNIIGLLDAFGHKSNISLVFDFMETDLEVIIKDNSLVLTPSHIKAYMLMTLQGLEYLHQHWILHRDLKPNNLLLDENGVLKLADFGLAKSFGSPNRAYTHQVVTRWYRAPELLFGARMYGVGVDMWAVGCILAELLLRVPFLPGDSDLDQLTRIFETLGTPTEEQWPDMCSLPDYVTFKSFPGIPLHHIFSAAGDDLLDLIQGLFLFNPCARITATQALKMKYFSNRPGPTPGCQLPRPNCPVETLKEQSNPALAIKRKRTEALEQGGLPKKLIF

[5] = biological target: Calcium-dependent protein kinase 1 (Plasmodium falciparum) (UniProt P62344); assay: Binding affinity to wild-type Plasmodium falciparum full length CDPK1 (M1 to S524 residues) expressed in mammalian expression system assessed as residual binding level at 10 uM by Kinomescan method relative to control
Calcium-dependent protein kinase 1 (Plasmodium falciparum), sequence (P62344 2-524 limits assumed): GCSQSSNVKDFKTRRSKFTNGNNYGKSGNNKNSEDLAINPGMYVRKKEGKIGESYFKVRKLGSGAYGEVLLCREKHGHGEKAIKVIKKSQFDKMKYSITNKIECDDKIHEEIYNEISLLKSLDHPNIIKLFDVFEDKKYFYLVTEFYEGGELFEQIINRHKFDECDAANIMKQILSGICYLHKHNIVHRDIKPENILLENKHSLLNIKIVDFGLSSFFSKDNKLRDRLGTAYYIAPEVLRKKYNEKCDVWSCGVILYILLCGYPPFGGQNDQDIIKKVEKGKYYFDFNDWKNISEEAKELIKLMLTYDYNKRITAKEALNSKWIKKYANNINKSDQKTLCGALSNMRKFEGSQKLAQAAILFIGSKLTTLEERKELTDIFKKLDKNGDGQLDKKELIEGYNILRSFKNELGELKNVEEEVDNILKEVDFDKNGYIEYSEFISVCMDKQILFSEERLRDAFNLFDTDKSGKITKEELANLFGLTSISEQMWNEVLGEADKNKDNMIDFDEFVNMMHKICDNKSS

[6] = biological target: Serine/threonine-protein kinase 17A (Homo sapiens) (UniProt Q9UEE5); assay: Binding affinity to wild-type human partial length DRAK1 (R32 to E363 residues) expressed in bacterial expression system assessed as residual binding level at 10 uM by Kinomescan method relative to control
[7] = biological target: Serine/threonine-protein kinase 16 (Homo sapiens) (UniProt O75716); assay: Binding affinity to wild-type human partial length STK16 (G11 to I305 residues) expressed in bacterial expression system assessed as residual binding level at 10 uM by Kinomescan method relative to control
[8] = biological target: RAC-alpha serine/threonine-protein kinase (Homo sapiens) (UniProt P31749); assay: Binding affinity to wild-type human partial length AKT1 expressed in bacterial expression system assessed as residual binding level at 10 uM by Kinomescan method relative to control
RAC-alpha serine/threonine-protein kinase (Homo sapiens), sequence (P31749 whole entry, the tested form may be a part): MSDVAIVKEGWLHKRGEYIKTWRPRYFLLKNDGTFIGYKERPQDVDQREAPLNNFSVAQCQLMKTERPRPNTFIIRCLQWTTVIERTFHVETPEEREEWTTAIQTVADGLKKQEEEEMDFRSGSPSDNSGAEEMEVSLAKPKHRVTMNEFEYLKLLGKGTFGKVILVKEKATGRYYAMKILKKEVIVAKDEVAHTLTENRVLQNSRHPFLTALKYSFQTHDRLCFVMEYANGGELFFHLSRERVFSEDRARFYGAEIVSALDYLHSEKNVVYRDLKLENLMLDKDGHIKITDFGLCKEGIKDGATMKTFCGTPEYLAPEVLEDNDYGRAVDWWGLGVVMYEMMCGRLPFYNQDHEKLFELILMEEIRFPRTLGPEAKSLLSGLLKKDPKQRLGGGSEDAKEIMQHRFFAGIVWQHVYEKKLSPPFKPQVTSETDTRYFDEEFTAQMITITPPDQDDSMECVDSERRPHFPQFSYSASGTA

[9] = tested on: Mast/stem cell growth factor receptor Kit (Homo sapiens), P10721 [V559D]; assay: Binding affinity to human partial length KIT V559D mutant (Y545 to D952 residues) expressed in bacterial expression system assessed as residual binding level at 10 uM by Kinomescan method relative to control
[10] = biological target: Mitogen-activated protein kinase 3 (Homo sapiens) (UniProt P27361); assay: Binding affinity to wild-type human full length ERK1 (M1 to P379 residues) expressed in bacterial expression system assessed as residual binding level at 10 uM by Kinomescan method relative to control
[11] = biological target: Muscle, skeletal receptor tyrosine-protein kinase (Homo sapiens) (UniProt O15146); assay: Binding affinity to wild-type human partial length MUSK (M553 to V869 residues) expressed in bacterial expression system assessed as residual binding level at 10 uM by Kinomescan method relative to control
Muscle, skeletal receptor tyrosine-protein kinase (Homo sapiens), sequence (O15146 whole entry, the tested form may be a part): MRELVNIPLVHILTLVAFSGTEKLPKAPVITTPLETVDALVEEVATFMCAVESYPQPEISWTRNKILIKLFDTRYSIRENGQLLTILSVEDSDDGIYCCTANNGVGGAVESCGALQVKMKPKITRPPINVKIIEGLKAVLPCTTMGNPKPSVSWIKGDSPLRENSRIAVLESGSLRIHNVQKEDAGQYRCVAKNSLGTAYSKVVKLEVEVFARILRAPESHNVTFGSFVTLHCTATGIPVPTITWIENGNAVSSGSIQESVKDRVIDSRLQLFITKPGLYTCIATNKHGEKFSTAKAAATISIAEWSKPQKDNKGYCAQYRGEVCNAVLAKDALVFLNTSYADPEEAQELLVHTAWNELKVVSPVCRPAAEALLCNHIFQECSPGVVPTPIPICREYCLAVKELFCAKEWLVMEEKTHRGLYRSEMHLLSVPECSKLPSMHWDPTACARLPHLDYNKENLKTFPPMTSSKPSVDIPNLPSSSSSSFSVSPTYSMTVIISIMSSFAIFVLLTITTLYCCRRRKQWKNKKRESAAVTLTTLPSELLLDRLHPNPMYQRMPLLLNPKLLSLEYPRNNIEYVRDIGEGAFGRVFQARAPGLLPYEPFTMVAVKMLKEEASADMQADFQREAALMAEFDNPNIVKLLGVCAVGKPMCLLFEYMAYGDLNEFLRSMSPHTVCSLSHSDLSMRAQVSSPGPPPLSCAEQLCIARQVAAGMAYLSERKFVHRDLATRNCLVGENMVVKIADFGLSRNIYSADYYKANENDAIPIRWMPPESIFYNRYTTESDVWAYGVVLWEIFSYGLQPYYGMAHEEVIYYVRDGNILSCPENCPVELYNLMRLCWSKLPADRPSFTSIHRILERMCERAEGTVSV

[12] = biological target: Serine/threonine-protein kinase Chk1 (Homo sapiens) (UniProt O14757); assay: Binding affinity to wild-type human partial length CHEK1 (M1 to G289 residues) expressed in bacterial expression system assessed as residual binding level at 10 uM by Kinomescan method relative to control
[13] = biological target: Casein kinase I isoform epsilon (Homo sapiens) (UniProt P49674); assay: Binding affinity to wild-type human full length CSNK1E (M1 to K416 residues) expressed in bacterial expression system assessed as residual binding level at 10 uM by Kinomescan method relative to control
[14] = biological target: Tyrosine-protein kinase JAK2 (Homo sapiens) (UniProt O60674); assay: Binding affinity to wild-type human partial length JAK2 JH1 catalytic domain (A829 to G1132 residues) expressed in mammalian expression system assessed as residual binding level at 10 uM by Kinomescan method relative to control
[15] = biological target: Cyclin-dependent kinase 2 (Homo sapiens) (UniProt P24941); assay: Binding affinity to wild-type human full length CDK2 (M1 to L298 residues) expressed in bacterial expression system assessed as residual binding level at 10 uM by Kinomescan method relative to control
[16] = biological target: Casein kinase I isoform gamma-2 (Homo sapiens) (UniProt P78368); assay: Binding affinity to wild-type human full length CSNK1G2 (M1 to K415 residues) expressed in bacterial expression system assessed as residual binding level at 10 uM by Kinomescan method relative to control
[17] = biological target: STE20-like serine/threonine-protein kinase (Homo sapiens) (UniProt Q9H2G2); assay: Binding affinity to wild-type human partial length SLK (S14 to A307 residues) expressed in bacterial expression system assessed as residual binding level at 10 uM by Kinomescan method relative to control
[18] = biological target: Mitogen-activated protein kinase kinase kinase 14 (Homo sapiens) (UniProt Q99558); assay: Binding affinity to wild-type human partial length NIK (L318 to P947 residues) expressed in mammalian expression system assessed as residual binding level at 10 uM by Kinomescan method relative to control
Mitogen-activated protein kinase kinase kinase 14 (Homo sapiens), sequence (Q99558 whole entry, looked up, the tested form may be a part): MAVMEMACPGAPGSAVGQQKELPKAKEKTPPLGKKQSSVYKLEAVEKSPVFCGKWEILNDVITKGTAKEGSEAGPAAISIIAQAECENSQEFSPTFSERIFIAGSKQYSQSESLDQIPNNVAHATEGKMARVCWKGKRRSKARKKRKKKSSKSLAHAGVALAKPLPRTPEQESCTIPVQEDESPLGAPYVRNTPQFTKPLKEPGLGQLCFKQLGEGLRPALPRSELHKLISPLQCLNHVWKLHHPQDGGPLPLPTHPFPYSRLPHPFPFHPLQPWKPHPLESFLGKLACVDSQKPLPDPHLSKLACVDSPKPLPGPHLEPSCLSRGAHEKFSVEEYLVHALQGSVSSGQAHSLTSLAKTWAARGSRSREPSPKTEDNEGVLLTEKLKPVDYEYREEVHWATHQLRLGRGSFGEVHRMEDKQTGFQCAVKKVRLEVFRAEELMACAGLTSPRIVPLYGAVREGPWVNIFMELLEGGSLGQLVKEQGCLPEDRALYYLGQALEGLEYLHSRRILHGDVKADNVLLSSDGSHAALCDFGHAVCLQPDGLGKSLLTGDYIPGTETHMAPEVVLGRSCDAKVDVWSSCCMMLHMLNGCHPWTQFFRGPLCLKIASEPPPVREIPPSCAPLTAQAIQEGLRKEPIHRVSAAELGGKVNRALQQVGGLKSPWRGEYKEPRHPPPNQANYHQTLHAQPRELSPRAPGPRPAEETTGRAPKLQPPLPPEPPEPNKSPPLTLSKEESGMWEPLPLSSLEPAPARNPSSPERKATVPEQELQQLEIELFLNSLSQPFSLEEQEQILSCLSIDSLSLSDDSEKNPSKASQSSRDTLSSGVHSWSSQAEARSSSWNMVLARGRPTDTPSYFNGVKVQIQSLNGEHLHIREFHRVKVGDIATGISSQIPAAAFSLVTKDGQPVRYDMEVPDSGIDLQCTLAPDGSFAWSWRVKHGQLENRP

[19] = biological target: Serine/threonine-protein kinase TAO2 (Homo sapiens) (UniProt Q9UL54); assay: Binding affinity to wild-type human partial length TAOK2 (M1 to A320 residues) expressed in mammalian expression system assessed as residual binding level at 10 uM by Kinomescan method relative to control
[20] = biological target: Tyrosine-protein kinase ABL1 (Homo sapiens) (UniProt P00519); assay: Binding affinity to wild-type human phosphorylated ABL1 (S229 to K512 residues) expressed in mammalian expression system assessed as residual binding level at 10 uM by Kinomescan method relative to control
Tyrosine-protein kinase ABL1 (Homo sapiens), sequence (P00519 whole entry, the tested form may be a part): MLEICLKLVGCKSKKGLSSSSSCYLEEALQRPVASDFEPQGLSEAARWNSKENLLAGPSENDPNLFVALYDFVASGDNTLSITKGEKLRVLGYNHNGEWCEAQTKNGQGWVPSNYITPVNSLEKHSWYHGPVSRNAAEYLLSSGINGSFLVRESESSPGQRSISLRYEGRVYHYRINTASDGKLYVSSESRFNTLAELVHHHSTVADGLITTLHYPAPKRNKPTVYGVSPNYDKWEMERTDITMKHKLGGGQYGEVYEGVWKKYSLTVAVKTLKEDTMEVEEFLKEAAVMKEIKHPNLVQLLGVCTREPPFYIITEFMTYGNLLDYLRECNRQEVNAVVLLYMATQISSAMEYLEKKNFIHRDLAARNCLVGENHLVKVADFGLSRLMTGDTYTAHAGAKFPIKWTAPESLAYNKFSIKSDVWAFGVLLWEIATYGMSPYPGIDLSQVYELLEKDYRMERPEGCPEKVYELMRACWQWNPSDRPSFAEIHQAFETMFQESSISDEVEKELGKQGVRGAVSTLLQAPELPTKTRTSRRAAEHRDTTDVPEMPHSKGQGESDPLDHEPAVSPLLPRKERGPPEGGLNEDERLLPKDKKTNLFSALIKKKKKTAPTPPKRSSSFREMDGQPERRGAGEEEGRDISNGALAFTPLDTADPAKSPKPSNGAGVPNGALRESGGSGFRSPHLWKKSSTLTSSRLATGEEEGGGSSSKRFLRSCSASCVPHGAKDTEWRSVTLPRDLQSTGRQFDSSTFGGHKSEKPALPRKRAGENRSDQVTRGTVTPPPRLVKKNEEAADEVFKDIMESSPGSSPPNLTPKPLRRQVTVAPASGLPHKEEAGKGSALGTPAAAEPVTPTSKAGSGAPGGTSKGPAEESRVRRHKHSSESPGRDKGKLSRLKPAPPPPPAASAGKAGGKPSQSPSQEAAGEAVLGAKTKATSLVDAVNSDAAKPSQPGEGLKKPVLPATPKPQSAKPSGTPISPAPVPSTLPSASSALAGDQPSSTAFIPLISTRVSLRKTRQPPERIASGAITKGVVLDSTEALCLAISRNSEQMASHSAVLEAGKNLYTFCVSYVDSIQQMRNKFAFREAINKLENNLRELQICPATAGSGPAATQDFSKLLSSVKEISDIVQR

[21] = biological target: Ribosomal protein S6 kinase beta-1 (Homo sapiens) (UniProt P23443); assay: Binding affinity to wild-type human partial length S6K1 (M1 to S421 residues) expressed in mammalian expression system assessed as residual binding level at 10 uM by Kinomescan method relative to control
[22] = biological target: Hormonally up-regulated neu tumor-associated kinase (Homo sapiens) (UniProt P57058); assay: Binding affinity to wild-type human partial length HUNK (A31 to K354 residues) expressed in bacterial expression system assessed as residual binding level at 10 uM by Kinomescan method relative to control
[23] = biological target: Serine/threonine-protein kinase PLK2 (Homo sapiens) (UniProt Q9NYY3); assay: Binding affinity to wild-type human partial length PLK2 (H58 to F354 residues) expressed in mammalian expression system assessed as residual binding level at 10 uM by Kinomescan method relative to control
[24] = biological target: Homeodomain-interacting protein kinase 2 (Homo sapiens) (UniProt Q9H2X6); assay: Binding affinity to wild-type human partial length HIPK2 (M153 to S564 residues) expressed in mammalian expression system assessed as residual binding level at 10 uM by Kinomescan method relative to control

## O=C(Nc1cc(-c2cn(CCNc3c4c(nc5ccccc35)CCCC4)nn2)ccn1)Nc1cccc2c1C1CCCCN1C2=O (racemic)
[1]
  Activity: 8.9%
[2]
  Activity: 82%
[3]
  Activity: 2.2%
[4]
  Activity: 2.3%
[5]
  Activity: 4%
[6]
  Activity: 0.3%
[7]
  Activity: 1.9%
[8]
  Activity: 100%
[9]
  Activity: 0.05%
[10]
  Activity: 57%
[11]
  Activity: 49%
[12]
  Activity: 92%
[13]
  Activity: 0.15%
[14]
  Activity: 21%
[15]
  Activity: 74%
[16]
  Activity: 68%
[17]
  Activity: 30%
[18]
  Activity: 28%
[19]
  Activity: 56%
[20]
  Activity: 0.6%
[21]
  Activity: 10%
[22]
  Activity: 100%
[23]
  Activity: 80%
[24]
  Activity: 49%
